We go through 18 compounds from PMC6072471 (MedChemComm, 2017).

One series has as its system rVSIV-ΔG-G pseudotype. The series can be described thus: microbe, parasite or virus in culture. The format is cell-based, Vesicular stomatitis Indiana virus. As to conditions: for IC50: Vesicular stomatitis Indiana virus, HEK293, 24 h, read-out: ICVSIV50.
The test system of series [1] is rVSIV-ΔG-MarV-GP pseudotype. The experiment in a line: organism not typed. To be noted: for IC50: HEK293, 24 h, read-out: ICMarV50. The format is cell-based, Marburg virus.

`CC1(C)[C@H]2CC[C@]1(C)[C@H](O)C2` [(–)-Borneol, reference compound]: in the series with rVSIV-ΔG-G pseudotype, the “activity against rVSIV-ΔG-G (in words)” value is “not active” and the IC50 is greater than 650 µM. In series [1], the “activity against rVSIV-ΔG-MarV-GP (in words)” value is “not active” and the IC50 was found to be 203 µM. The “toxicity (in words)” value in the series on HEK293 cells is given as “nontoxic”.
As to `CC1(C)[C@H]2CC[C@]1(C)[C@H](OC(=O)CN1CCCC1)C2` [Compound 1], the IC50 in the series on rVSIV-ΔG-G pseudotype came to 239 ± 19 µM. Moreover, in series [1], the “specificity of inhibition of MarV-GP-mediated infection (in words)” value was “non-specific inhibitors” and the IC50 came out at 52 ± 5 µM.
For `CC1(C)[C@H]2CC[C@]1(C)[C@H](OC(=O)CCN1CCCC1)C2` [Compound 2] the same measures were 29 ± 6 µM, “non-specific inhibitors” and 12 ± 1 µM.
`CC1(C)[C@H]2CC[C@]1(C)[C@H](OC(=O)CN1CCCCC1)C2` [Compound 3]: the IC50 in the series with rVSIV-ΔG-G pseudotype was 102 ± 9 µM; in series [1], 86 ± 11 µM.
The corresponding values for `CC1(C)[C@H]2CC[C@]1(C)[C@H](OC(=O)CCN1CCCCC1)C2` [Compound 4] are 121 ± 7 µM and 9 ± 1 µM.
For `CC1CCN(CC(=O)O[C@@H]2C[C@@H]3CC[C@@]2(C)C3(C)C)CC1` [Compound 5] the same measures were 77 ± 16 µM and 28 ± 2 µM.
Regarding `CC1CCN(CCC(=O)O[C@@H]2C[C@@H]3CC[C@@]2(C)C3(C)C)CC1` [Compound 6], the IC50 in the series on rVSIV-ΔG-G pseudotype amounted to 79 ± 19 µM. Also, in series [1], the “specificity of inhibition of MarV-GP-mediated infection (in words)” value was “highest virus-specific activity” and the IC50 is 4 ± 1 µM.
For `CC1(C)[C@H]2CC[C@]1(C)[C@H](OC(=O)CN1CCOCC1)C2` [Compound 7], the IC50 in the series on rVSIV-ΔG-G pseudotype was 267 ± 10 µM. In series [1], the “activity against rVSIV-ΔG-MarV-GP (in words)” value is listed as “do not exhibit activity” and the IC50 is 263 ± 24 µM.
The corresponding values for `CC1(C)[C@H]2CC[C@]1(C)[C@H](OC(=O)CCN1CCOCC1)C2` [Compound 8] are 257 ± 12 µM, “do not exhibit activity” and 78 ± 7 µM.
In the case of `CN1CCN(CC(=O)O[C@@H]2C[C@@H]3CC[C@@]2(C)C3(C)C)CC1` [Compound 9], the IC50 in the series on rVSIV-ΔG-G pseudotype amounted to 187 ± 24 µM; in series [1], 47 ± 3 µM.
The corresponding values for `CN1CCN(CCC(=O)O[C@@H]2C[C@@H]3CC[C@@]2(C)C3(C)C)CC1` [Compound 10] are 318 ± 23 µM and 19 ± 1 µM.
For `CCN1CCN(CC(=O)O[C@@H]2C[C@@H]3CC[C@@]2(C)C3(C)C)CC1` [Compound 11] the same measures were 447 ± 15 µM and 29 ± 2 µM.
For `CCN1CCN(CCC(=O)O[C@@H]2C[C@@H]3CC[C@@]2(C)C3(C)C)CC1` [Compound 12] the same measures were 106 ± 5 µM and 10 ± 2 µM.
Take `CC1(C)[C@H]2CC[C@]1(C)[C@H](OC(=O)CN1CCNCC1)C2` [Compound 13]: the figures for the IC50 (in the series on rVSIV-ΔG-G pseudotype; in series [1]) were 69 ± 13 µM and 20 ± 1 µM, respectively.
`CC1(C)[C@H]2CC[C@]1(C)[C@H](OC(=O)CCN1CCNCC1)C2` [Compound 14]: the IC50 is 102 ± 25 µM in the series on rVSIV-ΔG-G pseudotype and 10 ± 4 µM in series [1].
In the case of `CCCCN(CCCC)CC(=O)O[C@@H]1C[C@@H]2CC[C@@]1(C)C2(C)C` [Compound 15], the values for the IC50 (in the series with rVSIV-ΔG-G pseudotype; in series [1]) were 20 ± 1 µM and 11 ± 1 µM, respectively. Further, the “toxicity (in words)” value in the series on HEK293 cells is “highest toxicity”.
Take `CCCCN(CCCC)CCC(=O)O[C@@H]1C[C@@H]2CC[C@@]1(C)C2(C)C` [Compound 16]: the IC50 in the series with rVSIV-ΔG-G pseudotype came out at 48 ± 5 µM; in series [1], 6 ± 1 µM. In addition, the “toxicity (in words)” value in the series with HEK293 cells is on record as “highest toxicity”.
In the case of `COc1ccc(CCN(C)CCCC(C#N)(c2ccc(OC)c(OC)c2)C(C)C)cc1OC` (stereo not shown) [Verapamil, reference compound], the IC50 is greater than 200 µM in the series with rVSIV-ΔG-G pseudotype and 13 ± 1 µM in series [1].
